Measurements as given in US8697736B2, “1H-benzimidazole-4-carboxamides substituted with phenyl at the 2-position are potent PARP inhibitors” (AbbVie Inc., priority 2005, dated 2014).

Tested on: MX-1 Breast Carcinoma Xenograft
Assay: PARP inhibitors in combination with cisplatin in an early staged MX-1 breast carcinoma xenograft model
Type: in vivo, female SCID mice
Conditions: average tumor volume at Day 48; PARPi 25 or 0 mg/kg/day s.c. OMP x7 from day 16 + cisplatin 6 mg/kg/day i.p. qd x1 on day 18; footnote a not given; in mm³ (unit assumed)
Method: PARP Inhibitors in Combination with Cisplatin in an Early Staged MX-1 Breast Carcinoma Xenograft Model
0.2 cc of 1:10 MX-1 tumor brei, was injected subcutaneously into the flank of female SCID mice (Charles River Labs) on study day 0. On day 15, tumors were size matched (188±25 mm^3) and the animals were placed into one of two therapy groups:
Group 1 vehicle (s.c. OMP×7)+Cisplatin 6 mg/kg/day (i.p., qd×1)
Group 2 PARPi 25 mg/kg/day (s.c. OMP×7)+Cisplatin 6 mg/kg/day (i.p., qd×1) The vehicle for both the PARP inhibitor and cisplatin was 0.9% NaCl. There were 8-10 […] in each group. Treatment with the PARPi began on day 16 while cisplatin treatment was started on day 18. At various intervals following tumor cell inoculation, the individual tumor dimensions were serially measured using calibrated microcalipers and the tumor volumes calculated according to the formula V=L×W^2/2 (V:volume, L:length, W:width). Mice were humanely euthanized when the tumor volumes reached a predetermined size.

N.N.[Cl][Pt][Cl] [Vhl (PARPi)/Cis, Cisplatin]
Tumor Volume (Day 48): 1389 ± 300
